Data published in patent US8557859B2, “Immunomodulatory compositions” (Summit (Wales) Limited, priority 2003, dated 2013).

Columns and labels:
HSV-1 (SC16) = assay: Treatment of murine HSV-1 infection: ear pinna thickness; type: in vivo, BALB/c mice; settings: result in words; casuarine at both doses (15 and 150 mg/kg i.p.); famciclovir via drinking water 1 mg/ml
MCF-7 cells = assay: Effect on glycosylation of breast cancer cells; type: cell-based; settings: MCF-7, 0.75 mM; difference from untreated cells at the 62 and 86 hour time points
Description: MCF-7 cells (European Collection of Cell Cultures Ref. 86012803) were taken from liquid nitrogen stock, thawed at room temperature and transferred to 10 ml Dulbeccos Modified Eagle's Medium with Hams F12, 15 mM Hepes and L-glutamine (DMEM: Cambrex Cat. No. BE12-719F) supplemented with 10% v/v foetal calf serum (FCS: BioWest Labs Cat. No. S02755, Lot. No. S1800). The FCS was pre-filtered through a 0.2 μm steril filter.
The cells were then centrifuged at 1,500 rpm in a Centaur bench-top centrifuge and the supernatant removed. The cells were reconstituted in fresh media and seeded into two T75 cm^3 Nunclon tissue culture flasks and allowed to settle overnight at 37° C. in a 5% CO2 incubator. The flasks were wrapped in cling film to prevent cross-contamination and the following day the media was changed to include the antibiotics penicillin and streptomycin as a precautionary measure against infection (at concentrations of 1 mg/cm^3 and 5 mg/cm^3, respectively). […]
The cells were harvested using a non-enzymatic method. At each of the time points the cells were viewed under the inverted light microscope and the morphology evaluated. […] The number of cells was then counted in a haemocytometer and cell viability evaluated by mixing 0.1 cm^3 of each cell suspension with a drop of trypan blue solution. […]
Evaluated using the BioRad protein assay according to the manufacturer's instructions. […]

[1] = target: rabbit gut mucosa α-D-glucosidase; assay: Inhibition of rabbit gut mucosa α-D-glucosidase; type: biochemical
Naringinase = assay: Glycosidase inhibition, Naringinase; type: biochemical, Penecillium decumbens; settings: 1 mg/ml
Description: (§1) All enzymes were purchased from Sigma, as were the appropriate p-nitrophenyl substrates. Assays were carried out in microtitre plates. Enzymes were assayed in 0.1 M citric acid/0.2M di-sodium hydrogen phosphate (McIlvaine) buffers at the optimum pH for the enzyme. All assays were carried out at 20° C. For screening assays the incubation assay consisted of 10 μl of enzyme solution, 10 μl of inhibitor solution (made up in water) and 50 μl of the appropriate 5 mM p-nitrophenyl substrate (3.57 mM final conc.) made up in McIlvaine buffer at the optimum pH for the enzyme.
(§2) The reactions were stopped with 0.4M glycine (pH 10.4) during the exponential phase of the reaction, which was determined at the beginning of the assay using blanks with water, which were incubated for a range of time periods to measure the reaction rate using 5 mM substrate solution. Endpoint absorbances were read at 405 nm with a Biorad microtitre plate reader (Benchmark). Water was substituted for the inhibitors in the blanks.

[2] = tested on: Na^+-dependent D-glucose uptake into ovine intestinal brush border membrane vesicles; assay: Effect on glucose transport (competition assay with labelled D-glucose); type: biochemical
[3] = tested on: N-acetyl-β-D-glucosaminidase; assay: Glycosidase inhibition, N-acetyl-β-D-glucosaminidase; type: biochemical, Bovine kidney; settings: 1 mg/ml
Description: as §1, §2

[4] = target: T1, rabbit small intestine sucrase (Oryctolagus cuniculus, UniProt P07768); assay: Inhibition of rabbit small intestine sucrase; type: biochemical; settings: at a concentration of 700 μM
T1 construct: from tissue; host or cells: rabbit small intestine
T1 sequence (P07768 whole entry): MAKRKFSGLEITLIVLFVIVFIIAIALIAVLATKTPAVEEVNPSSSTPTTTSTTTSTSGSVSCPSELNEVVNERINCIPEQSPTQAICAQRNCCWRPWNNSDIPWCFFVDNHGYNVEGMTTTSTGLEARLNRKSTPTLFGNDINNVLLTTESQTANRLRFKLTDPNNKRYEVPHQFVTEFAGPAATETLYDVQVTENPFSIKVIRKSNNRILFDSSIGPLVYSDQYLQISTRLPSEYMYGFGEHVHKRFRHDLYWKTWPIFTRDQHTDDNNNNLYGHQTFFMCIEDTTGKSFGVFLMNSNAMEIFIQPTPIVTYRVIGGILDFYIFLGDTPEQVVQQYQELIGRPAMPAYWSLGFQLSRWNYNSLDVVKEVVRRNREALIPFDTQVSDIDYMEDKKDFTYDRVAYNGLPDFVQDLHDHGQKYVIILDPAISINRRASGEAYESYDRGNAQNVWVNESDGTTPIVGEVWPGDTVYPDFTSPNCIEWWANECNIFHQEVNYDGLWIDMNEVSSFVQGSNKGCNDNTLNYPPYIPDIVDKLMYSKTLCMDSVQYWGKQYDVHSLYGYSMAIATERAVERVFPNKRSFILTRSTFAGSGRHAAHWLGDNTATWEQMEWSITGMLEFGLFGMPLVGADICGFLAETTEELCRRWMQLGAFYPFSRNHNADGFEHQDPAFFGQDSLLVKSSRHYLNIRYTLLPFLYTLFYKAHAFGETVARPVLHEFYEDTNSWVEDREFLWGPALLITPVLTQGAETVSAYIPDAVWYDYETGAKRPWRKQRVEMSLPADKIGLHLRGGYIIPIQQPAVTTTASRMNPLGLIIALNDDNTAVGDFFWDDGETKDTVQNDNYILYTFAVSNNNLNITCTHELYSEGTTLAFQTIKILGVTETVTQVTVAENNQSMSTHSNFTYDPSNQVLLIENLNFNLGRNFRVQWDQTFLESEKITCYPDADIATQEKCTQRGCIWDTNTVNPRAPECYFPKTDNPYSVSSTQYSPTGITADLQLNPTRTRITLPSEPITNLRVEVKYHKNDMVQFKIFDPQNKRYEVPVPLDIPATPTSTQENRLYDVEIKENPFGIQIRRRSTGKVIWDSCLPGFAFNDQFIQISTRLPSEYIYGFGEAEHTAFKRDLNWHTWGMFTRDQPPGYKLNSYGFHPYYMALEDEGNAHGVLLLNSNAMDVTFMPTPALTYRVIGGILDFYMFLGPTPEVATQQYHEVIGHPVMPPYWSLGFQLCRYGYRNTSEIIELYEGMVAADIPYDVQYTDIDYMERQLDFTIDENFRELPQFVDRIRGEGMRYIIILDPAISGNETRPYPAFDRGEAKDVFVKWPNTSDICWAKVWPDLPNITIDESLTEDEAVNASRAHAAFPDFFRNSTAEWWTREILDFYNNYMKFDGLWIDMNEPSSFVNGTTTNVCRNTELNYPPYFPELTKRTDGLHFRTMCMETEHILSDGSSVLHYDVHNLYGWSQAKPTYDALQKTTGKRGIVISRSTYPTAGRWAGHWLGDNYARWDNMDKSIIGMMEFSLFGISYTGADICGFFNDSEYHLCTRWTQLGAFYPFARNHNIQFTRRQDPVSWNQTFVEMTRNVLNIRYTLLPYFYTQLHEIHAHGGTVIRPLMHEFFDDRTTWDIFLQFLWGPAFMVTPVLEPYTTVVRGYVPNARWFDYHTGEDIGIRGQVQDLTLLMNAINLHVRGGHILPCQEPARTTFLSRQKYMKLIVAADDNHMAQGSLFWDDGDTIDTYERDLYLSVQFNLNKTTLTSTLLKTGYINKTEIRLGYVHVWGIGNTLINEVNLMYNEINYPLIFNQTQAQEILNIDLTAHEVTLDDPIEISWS

β-D-glucosidase = assay: Glycosidase inhibition, β-D-glucosidase; type: biochemical, Almonds (Prunus sp.)
Description: as §1, §2

β-D-galactosidase = assay: Glycosidase inhibition, β-D-galactosidase; type: biochemical, Bovine liver; settings: 1 mg/ml; second galactosidase line
Description: as §1, §2

[5] = Treatment of murine HSV-1 infection: body weight; type: in vivo, BALB/c mice
B16-F10 tumour cells = assay: Control of lung metastasis in mice; type: in vivo, Mice (C57/bl6); settings: 50 mg/kg s/c on days 2 and 4; lungs on day 14
Description: Mice (C57/bl6 under i/p ketamine anaesthesia) were challenged i/v (tail vein) with 5×10^4 B16-F10 tumour cells in a final volume of 100 μl per mouse on day 0. Test compounds (50 mg/kg in 200 μl sterile non-pyrogenic saline) were administered s/c (right flank) on days 2 and 4. On day 14 the mice were sacrifices and the lungs dissected and stained in Indian ink solution (150 ml bidistilled water, 30 ml India Ink, 4 drops NH4OH) for 10 minutes then fixed for at least 24 hr in Fakete's solution (90 ml 37% formaldehyde, 900 ml 70% EtOH and 45 ml glacial acetic acid). The metastases in the stained and fixed lungs could then be visualized, counted and photographed.

α-D-glucosidase = assay: Glycosidase inhibition, α-D-glucosidase (Bacillus); type: biochemical, Bacillus stearothermophilus; settings: 1 mg/ml
Description: as §1, §2

[6] = Group 1: 15 mg/kg i.p. daily, day 0
[7] = Group 1: 15 mg/kg i.p. daily, day 1
[8] = Group 1: 15 mg/kg i.p. daily, day 2
[9] = Group 1: 15 mg/kg i.p. daily, day 3
[10] = Group 1: 15 mg/kg i.p. daily, day 4
[11] = Group 1: 15 mg/kg i.p. daily, day 5
[12] = Group 1: 15 mg/kg i.p. daily, day 6
[13] = Group 1: 15 mg/kg i.p. daily, day 7
[14] = Group 1: 15 mg/kg i.p. daily, day 8
[15] = Group 1: 15 mg/kg i.p. daily, day −2
[16] = Group 2: 150 mg/kg i.p. daily, day 0
[17] = Group 2: 150 mg/kg i.p. daily, day 1
[18] = Group 2: 150 mg/kg i.p. daily, day 2
[19] = Group 2: 150 mg/kg i.p. daily, day 3
[20] = Group 2: 150 mg/kg i.p. daily, day 4
[21] = Group 2: 150 mg/kg i.p. daily, day 5
[22] = Group 2: 150 mg/kg i.p. daily, day 6
[23] = Group 2: 150 mg/kg i.p. daily, day 7
[24] = Group 2: 150 mg/kg i.p. daily, day 8
[25] = Group 2: 150 mg/kg i.p. daily, day −2

**Q.** For `OC[C@@H]1[C@@H](O)[C@H](O)[C@H]2[C@H](O)[C@@H](O)CN21` [casuarine (8), (1R,2R,3R,6S,7S,7aR)-3-(hydroxymethyl)-1,2,6,7-tetrahydroxypyrrolizidine], which ear thickness response (HSV-1 (SC16)) is on record?
**A.** The ear thickness response was “produced a reduction in ear thickness”.

**Q.** What about the “glycan synthesis and/or N-linked glycosylation in breast cancer cells” value (MCF-7 cells) of the same molecule?
**A.** The value was “can inhibit glycan synthesis and/or N-linked glycosylation”.

**Q.** What about the IC50 [1] of the same molecule?
**A.** Its IC50 is 210 µM.

**Q.** What about the “% inhibition Naringinase” value (Naringinase) of the same molecule?
**A.** Its value is −2%.

**Q.** What about the “Glucose uptake” value ([2]; initial rate, control 240) of the same molecule?
**A.** The value was 265 pmol/s/mg.

**Q.** What about the glucose transport ([2]; result in words) of the same molecule?
**A.** The glucose transport was “slightly stimulated”.

**Q.** What about the “% inhibition N-acetyl-β-gluc” value [3] of the same molecule?
**A.** Its value is 14%.

**Q.** And the “inhibition of rabbit small intestine sucrase” value [4]?
**A.** The value was “inhibited”.

**Q.** And the “% inhibition glucosidase” value (β-D-glucosidase; 1 mg/ml)?
**A.** Its value is 0%.

**Q.** What about the “inhibition of almond 6-D-glucosidase” value (β-D-glucosidase; at 800 μM) of the same molecule?
**A.** The value was “not being inhibitory”.

**Q.** What about the “% inhibition galactosidase” value (β-D-galactosidase) of the same molecule?
**A.** Its value is 0%.

**Q.** And the “Group mean weight” value [5, 6]?
**A.** Its value is 16.7 g.

**Q.** And the “Weight (% change)” value [5, 6]?
**A.** The value was 3.1%.

**Q.** And the “Group mean weight” value [5, 7]?
**A.** The value was 17.1 g.

**Q.** What about the “Weight (% change)” value [5, 7] of the same molecule?
**A.** The value was 5.6%.

**Q.** And the “Group mean weight” value [5, 8]?
**A.** The value was 17.1 g.

**Q.** And the “Weight (% change)” value [5, 8]?
**A.** The value was 5.6%.

**Q.** What about the “Group mean weight” value [5, 9] of the same molecule?
**A.** Its value is 17.6 g.

**Q.** And the “Weight (% change)” value [5, 9]?
**A.** The value was 8.6%.

**Q.** And the “Group mean weight” value [5, 10]?
**A.** The value was 17.4 g.

**Q.** And the “Weight (% change)” value [5, 10]?
**A.** Its value is 7.4%.

**Q.** And the “Group mean weight” value [5, 11]?
**A.** The value was 17.6 g.

**Q.** What about the “Weight (% change)” value [5, 11] of the same molecule?
**A.** Its value is 8.6%.

**Q.** What about the “Group mean weight” value [5, 12] of the same molecule?
**A.** The value was 17.7 g.

**Q.** What about the “Weight (% change)” value [5, 12] of the same molecule?
**A.** The value was 9.2%.

**Q.** What about the “Group mean weight” value [5, 13] of the same molecule?
**A.** Its value is 17.4 g.

**Q.** And the “Weight (% change)” value [5, 13]?
**A.** Its value is 7.4%.

**Q.** And the “Group mean weight” value [5, 14]?
**A.** The value was 17.7 g.

**Q.** What about the “Weight (% change)” value [5, 14] of the same molecule?
**A.** The value was 9.3%.

**Q.** And the “Group mean weight” value [5, 15]?
**A.** Its value is 16.2 g.

**Q.** And the “Weight (% change)” value [5, 15]?
**A.** The value was 0%.

**Q.** What about the “Group mean weight” value [5, 16] of the same molecule?
**A.** Its value is 16 g.

**Q.** What about the “Weight (% change)” value [5, 16] of the same molecule?
**A.** Its value is 3.2%.

**Q.** And the “Group mean weight” value [5, 17]?
**A.** Its value is 16.4 g.

**Q.** What about the “Weight (% change)” value [5, 17] of the same molecule?
**A.** The value was 5.8%.

**Q.** And the “Group mean weight” value [5, 18]?
**A.** Its value is 16.3 g.

**Q.** What about the “Weight (% change)” value [5, 18] of the same molecule?
**A.** The value was 5.2%.

**Q.** What about the “Group mean weight” value [5, 19] of the same molecule?
**A.** The value was 16.6 g.

**Q.** And the “Weight (% change)” value [5, 19]?
**A.** Its value is 7.1%.

**Q.** What about the “Group mean weight” value [5, 20] of the same molecule?
**A.** Its value is 16.4 g.

**Q.** What about the “Weight (% change)” value [5, 20] of the same molecule?
**A.** Its value is 5.8%.

**Q.** What about the “Group mean weight” value [5, 21] of the same molecule?
**A.** The value was 16.8 g.

**Q.** What about the “Weight (% change)” value [5, 21] of the same molecule?
**A.** Its value is 8.4%.

**Q.** And the “Group mean weight” value [5, 22]?
**A.** Its value is 17 g.

**Q.** And the “Weight (% change)” value [5, 22]?
**A.** Its value is 9.7%.

**Q.** And the “Group mean weight” value [5, 23]?
**A.** The value was 16.7 g.

**Q.** And the “Weight (% change)” value [5, 23]?
**A.** The value was 7.7%.

**Q.** And the “Group mean weight” value [5, 24]?
**A.** The value was 16.8 g.

**Q.** What about the “Weight (% change)” value [5, 24] of the same molecule?
**A.** Its value is 8.4%.

**Q.** What about the “Group mean weight” value [5, 25] of the same molecule?
**A.** Its value is 15.5 g.

**Q.** What about the “Weight (% change)” value [5, 25] of the same molecule?
**A.** Its value is 0%.

**Q.** And the Metastatic morphology (B16-F10 tumour cells)?
**A.** Its Metastatic morphology is “Metastasis restricted to apical tip of lung”.

**Q.** And the “% inhibition gluc (Bacillus)” value (α-D-glucosidase)?
**A.** Its value is 86%.
